Marks after values point to notes of the source that are not given here.
Tests used:
[1] = biological target: T1, JAK2 (Homo sapiens, UniProt O60674); assay: phospho-JAK2 Western Blot on monocytes; assay type: cell-based; conditions: 50 nM fMLP 180 sec
T1 construct: endogenous in cells; host or cells: human primary monocytes
Source text: JAK2 regulation by PTPRG as assessed through the high-throughput phospho-proteomics analysis evidenced that PTPRG activation (Example 4, Table 9 and 10) provides a useful example of the exploitation of this analysis system for identification of targets and unexpected indications/uses for known and novel agents that regulate the phoshoproteome. […] Furthermore, the capability of fMLP to trigger JAKs activation has never been observed. The results described in Example 4 unexpectedly implicate JAK2 de-phosphorylation by PTPRG as playing a role in the anti-adhesive role of PTPRG on monocytes. To test this system-generated hypothesis we first set out to define the role of JAK2 in fMLP-triggered rapid adhesion in monocytes. Time course experiments, either performed with ELISA assay or Western Blot. Briefly, purified human monocytes were treated with buffer (resting) or with 50 nM fMLP for the indicated times (Table 12), and the phosphorylation was assessed by p-Jak2 elisa and Western Blot analysis. The JAK2 activation was determined with Elisa Kit JAK2 (pYpY1007/1008) (Invitrogen). Briefly, cells were stimulated with agonist and lysed following manufacturer's protocol; levels of phospho-JAK2 were quantified (absorbance at 450 nm) with a micro-well plate reader (Victor™ X5 Multilabel Plate Reader, Perkin Elmer). For Western blot analysis, cells were lysed in ice-cold 1% Nonidet P-40 buffer, containing phosphatase inhibitors and complete protease inhibitor cocktail (Roche). Total cell lysates were quantified by Bradford assay (Bio-Rad). Equal amounts of total lysates or of isolated membranes (as described in Example 1) were subjected to 10% SDS-PAGE and then blotted. After incubation with anti-PTPRG, anti gp91^Phox, anti phospho-JAK2, anti JAK2 and HRP-linked secondary antibodies (GE Healthcare), immunoreactive bands were visualized by ECL detection (EMD Millipore). Intensities of band signals were quantified by densitometric analysis (Quantity One, Bio-Rad) by using ImageQuant Las4000. Data are mean value of three experiments; the relative ratio of the band intensity of phosphor-JAK2 was normalized to the level of JAK2 band intensities.
To evaluate whether JAK2 mediates fMLP-triggered rapid adhesion in human monocytes, we tested the capability of three JAK inhibitors, AG490, WHI-P154 and P1-TKIP peptide, to block adhesion triggering. Briefly, Monocytes were treated with buffer (resting and Control=CTRL), 100 μM AG490, 40 μM P1 or P1-TKIP peptides, or 200 μM WHI-P154 for 1 hour at 37° C. and stimulated with 50 nM fMLP for 180 sec. Cell lysates were probed with anti phospho-JAK2 and with anti JAK2. Western Blot immuoreactive band quantification; the relative ratio of the band intensity of phospho-JAK2 was normalized to the level of JAK2 band intensities; mean values of three experiments (Table 13).
The impact of TAT-ICD and P1-WD on JAK2 activation by chemoattractants was also evaluated by Western Blot analysis. Briefly, monocytes were treated with buffer (Resting, CTRL), 0.5 uM TAT-ICD, 50 μM TAT peptide, 50 μM P1-WD, P1 or P1-WD scrambled peptides for 1 hour at 37° C. and stimulated with 50 nM fMLP for 180 sec (the resting cells were not stimulated with fMLP). Total lysates were probed with anti phospho-JAK2 or with anti JAK. Western Blot immunoreactive bands were quantified and the relative ratio of the band intensity of phospho-JAK2 was normalized to the level of JAK2 band intensities; data are mean value and standard deviation of three experiments (Table 19).

[2] = test system: human primary monocytes; assay: underflow adhesion of monocytes on E-selectin/ICAM-1 (BioFlux); assay type: cell-based; conditions: for arrest 1 sec, flow assay / arrest 10 sec, flow assay / rolling cells, flow assay: Table 3, concentration not given; for arrest 1 sec, flow assay: CTRL 24; for rolling cells, flow assay: CTRL 50
Experimental: Flow-adhesion assays were also performed to test the ability of the P1-WD peptide to inhibit adhesion of human monocytes under flow conditions. Briefly, Human primary monocytes were suspended at 1×10^6/ml in standard adhesion. Cell behavior in underflow conditions was analyzed with the BioFlux 200 system (Fluxion Biosciences). 48-well plate microfluidics were first co-coated overnight at room temperature with 2.5 μg/ml human E-selectin and 5 μg/ml human ICAM-1 in PBS. Immediately before use, microfluidic channels were washed with PBS and then coated with 10 nM fMLP in PBS for 3 h at room temperature. After extensive washing of microfluidics with adhesion buffer, cells were fluxed at 2 dyne/cm^2 wall shear stress and the behavior of interacting cells was digitally recorded with a fast CCD videocamera (25 frames/s). Single areas of 0.2 mm^2 were recorded for at least 120 s. Interactions of 40 ms or longer were considered significant and scored. Cells that remained firmly adherent for at least 1 s were considered fully arrested. Cells arrested for at least 1 s and then detached, or for 10 s and then remained adherent, were scored separately and plotted as independent groups. Interacting cells behaviors were automatically quantified with BeQuanti.
Briefly, human monocytes were treated with buffer (CTRL), 50 μM TAT peptides, or 0.5 μM TAT-ICD for 1 hour at 37° C. Data are percentages of rolling and arrested cells for the indicated times over total interacting cells; mean values of 4 experiments.
Briefly, Human monocytes were treated with buffer (CTRL=control), 100 μM AG490, 40 μM P1 or P1-TKIP peptides or 200 μM WHI-P154 for 1 hour at 37° C. Shown are percentages of rolling and arrested cells for the indicated times over total interacting cells; mean values of 5 experiments; errors bars are SDs.

[3] = test system: T98G GBM cells; assay: MTT survival assay, T98G GBM cells; assay type: cell-based, human
Experimental: The DBTRG-O5MG (Denver Brain Tumor Research Group 05) cell line was established from tissue from a patient with glioblastoma multiforme who had been treated with local brain irradiation and multi drug chemotherapy (Kruse C A, et al. 1992 In vitro Cell Dev Biol, 28A(9-10):609-14). U87 is a commonly studied and thoroughly characterized grade IV glioma cell line derived from malignant glioma (Clark M J, et al, 2010 Plos Genet. 6(1):e1000832.). T98G is a glioblastoma multiforme cell line extracted from a person (Stein G H, 1979, J. Cell Physiol, 99(1):43-54). Proliferation and survival were assessed following TAT-ICD or control peptide (Table 29) or the P1-WD or control peptide treatment using the MTT assay as described above. Data are relative absorption; mean and standard deviation.

[4] = 100 μM AG490, 40 μM P1 or P1-TKIP, 200 μM WHI-P154, 1 hour, CTRL 207.7, Resting 18.8
[5] = 100 μM AG490, 40 μM P1 or P1-TKIP, 200 μM WHI-P154, 1 hour, CTRL 26
[6] = 100 μM AG490, 40 μM P1 or P1-TKIP, 200 μM WHI-P154, 1 hour, CTRL 34
[7] = 100 μM AG490, 40 μM P1 or P1-TKIP, 200 μM WHI-P154, 1 hour, CTRL 40
[8] = P1 or P1-WD 50 μM, 24 hours, Control 971
[9] = P1 or P1-WD 50 μM, 48 hours, Control 1305
[10] = P1 or P1-WD 50 μM, 72 hours, Control 1481
[11] = 0.5 uM TAT-ICD, 50 μM TAT, 50 μM P1-WD, P1 or P1-WD scrambled, 1 hour, CTRL 50, Resting 8
[12] = 50 μM TAT peptides or 0.5 μM TAT-ICD, 1 hour at 37° C., CTRL 12
[13] = 50 μM TAT peptides or 0.5 μM TAT-ICD, 1 hour at 37° C., CTRL 22
[14] = 50 μM TAT peptides or 0.5 μM TAT-ICD, 1 hour at 37° C., CTRL 66

T1 sequence (O60674 whole entry): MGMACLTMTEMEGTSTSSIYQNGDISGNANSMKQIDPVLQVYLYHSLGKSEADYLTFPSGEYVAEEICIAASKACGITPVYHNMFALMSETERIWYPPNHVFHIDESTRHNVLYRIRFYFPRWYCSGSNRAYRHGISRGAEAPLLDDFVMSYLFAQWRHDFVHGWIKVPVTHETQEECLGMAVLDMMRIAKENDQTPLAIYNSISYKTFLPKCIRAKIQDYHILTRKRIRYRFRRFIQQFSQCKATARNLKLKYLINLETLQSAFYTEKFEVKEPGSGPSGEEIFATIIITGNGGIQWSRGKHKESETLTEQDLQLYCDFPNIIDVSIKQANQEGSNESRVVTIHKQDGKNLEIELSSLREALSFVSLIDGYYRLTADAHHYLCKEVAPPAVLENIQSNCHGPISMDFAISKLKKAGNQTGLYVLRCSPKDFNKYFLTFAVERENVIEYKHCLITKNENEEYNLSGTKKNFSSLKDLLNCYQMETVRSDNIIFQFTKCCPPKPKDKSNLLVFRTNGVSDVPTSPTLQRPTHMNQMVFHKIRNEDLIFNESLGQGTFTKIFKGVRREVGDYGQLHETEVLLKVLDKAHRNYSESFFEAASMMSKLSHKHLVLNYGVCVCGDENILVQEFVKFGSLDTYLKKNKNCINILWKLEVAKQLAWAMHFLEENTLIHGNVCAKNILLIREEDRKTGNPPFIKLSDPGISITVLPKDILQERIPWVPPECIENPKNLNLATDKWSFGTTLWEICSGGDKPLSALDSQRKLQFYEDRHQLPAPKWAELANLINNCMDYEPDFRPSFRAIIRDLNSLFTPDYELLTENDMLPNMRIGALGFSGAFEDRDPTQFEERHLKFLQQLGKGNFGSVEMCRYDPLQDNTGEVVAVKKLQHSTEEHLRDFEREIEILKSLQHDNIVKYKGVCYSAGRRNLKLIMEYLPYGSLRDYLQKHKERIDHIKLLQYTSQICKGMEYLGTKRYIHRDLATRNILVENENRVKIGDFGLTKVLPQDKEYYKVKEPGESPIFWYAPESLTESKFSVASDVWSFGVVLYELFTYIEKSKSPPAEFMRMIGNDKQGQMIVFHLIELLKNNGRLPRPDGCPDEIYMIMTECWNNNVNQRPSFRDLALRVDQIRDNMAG

Compound | phospho-JAK2 band intensity normalized to JAK2, Western Blot [1, 4] | cells arrested 10 sec over total interacting cells, flow assay [2, 5] [%] | cells arrested 1 sec over total interacting cells, flow assay [2, 6] [%] | rolling cells over total interacting cells, flow assay [2, 7] [%] | absorbance in the MTT assay [3, 8] | absorbance in the MTT assay [3, 9] | absorbance in the MTT assay [3, 10] | phospho-JAK2 band intensity normalized to JAK2, Western Blot [1, 11] | arrest 1 sec, flow assay [2] | arrest 10 sec, flow assay ([2]; CTRL 26) | rolling cells, flow assay [2] | rolling cells over total interacting cells, flow assay [2, 12] [%] | cells arrested 1 sec over total interacting cells, flow assay [2, 13] [%] | cells arrested 10 sec over total interacting cells, flow assay [2, 14] [%] | other results
N#C/C(=C/c1ccc(O)c(O)c1)C(=O)NCc1ccccc1 [AG490] | 9.2 | 10 | 20 | 70 |  |  |  |  |  |  |  |  |  |  | 
P1: Penetratin delivery peptide, 16 aa RQIKIWFQNRRMKWKK (SEQ ID 4), control [reference compound] | 111.4 | 30 | 26 | 44 | 1113 | 1019 | 1111 | 49 | 32 | 30 | 38 |  |  |  | 
P1-WD: fusion Trojan peptide SEQ ID 3: Penetratin, glycine, PTPRG wedge domain aa 831-856; RQIKIWFQNRRMKWKKGKQFVKHIGELYSNNQHGFSEDFEEVQ (listed as Homo sapiens) |  |  |  |  | 540 | 744 | 842 | 12* | 9 | 11 | 80 |  |  |  | absorbance in the MTT assay ([3]; P1-WD 10 μM, 24 hours, Control 971): 629; absorbance in the MTT assay ([3]; P1-WD 10 μM, 48 hours, Control 1305): 854; absorbance in the MTT assay ([3]; P1-WD 10 μM, 72 hours, Control 1481): 985; absorbance in the MTT assay ([3]; P1-WD 25 μM, 24 hours, Control 971): 555; absorbance in the MTT assay ([3]; P1-WD 25 μM, 48 hours, Control 1305): 697; absorbance in the MTT assay ([3]; P1-WD 25 μM, 72 hours, Control 1481): 835
COc1cc2ncnc(Nc3ccc(O)c(Br)c3)c2cc1OC [WHI-P154] | 4.9 | 14 | 20 | 66 |  |  |  |  |  |  |  |  |  |  | 
TAT (GRKKRRQRRRPPQ; listed as Homo sapiens) [reference compound] |  |  |  |  |  |  |  | 40 |  |  |  | 14 | 25 | 61 | absorbance in the MTT assay ([3]; TAT 500[…]μM, 24 hours, CTRL 971): 954; absorbance in the MTT assay ([3]; TAT 500[…]μM, 48 hours, CTRL 1305): 1237; absorbance in the MTT assay ([3]; TAT 500[…]μM, 72 hours, CTRL 1481): 1205
TAT-ICD: fusion recombinant protein SEQ ID 5: PTPRG intracellular domain aa 797-1445 fused to 13 aa TAT sequence |  |  |  |  |  |  |  | 15* |  |  |  | 79 | 10 | 11 | absorbance in the MTT assay ([3]; TAT-ICD 0.5 μM, 24 hours, CTRL 971): 921; absorbance in the MTT assay ([3]; TAT-ICD 0.5 μM, 48 hours, CTRL 1305): 1301; absorbance in the MTT assay ([3]; TAT-ICD 0.5 μM, 72 hours, CTRL 1481): 1061; absorbance in the MTT assay ([3]; TAT-ICD 1 μM, 24 hours, CTRL 971): 745; absorbance in the MTT assay ([3]; TAT-ICD 1 μM, 48 hours, CTRL 1305): 947; absorbance in the MTT assay ([3]; TAT-ICD 1 μM, 72 hours, CTRL 1481): 935; absorbance in the MTT assay ([3]; TAT-ICD 2 μM, 24 hours, CTRL 971): 552; absorbance in the MTT assay ([3]; TAT-ICD 2 μM, 48 hours, CTRL 1305): 687; absorbance in the MTT assay ([3]; TAT-ICD 2 μM, 72 hours, CTRL 1481): 625
